Assay results as given in ChEMBL document CHEMBL1201862, “PubChem BioAssay data set” (2004).
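Step 1: Grow cells in 96-well plates. Step 2: Expose to compound for 48 hours at 5 concentrations. Step 3: Interpolate endpoints linearly; if unreached, use highest concentration. GI50 = concentration required for 50% inhibition of growth.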 Activity calls are given as the source filed them. No stated cut-off is given here; in the data, active = GI50 up to about 1.1 µM and inactive = higher.

Columns and labels:
Assay in all cases: inhibition of tumour cell growth, NCI panel, 48 h
NCI-H226 = tested on: NCI-H226
SNB-75 = tested on: SNB-75
EKVX = tested on: EKVX
SK-MEL-28 = tested on: SK-MEL-28
MOLT-4 = tested on: MOLT-4
UACC-62 = tested on: UACC-62
LOX IMVI = tested on: LOX IMVI
UACC-257 = tested on: UACC-257
OVCAR-3 = tested on: OVCAR-3
SNB-78 = tested on: SNB-78
LXFL 529 = tested on: LXFL 529
HCT-116 = tested on: HCT-116
OVCAR-4 = tested on: OVCAR-4
NCI-H460 = tested on: NCI-H460
A549 = tested on: A549
UO-31 = tested on: UO-31
SF-268 = tested on: SF-268
M19-MEL = tested on: M19-MEL
M14 = tested on: M14
SN12C = tested on: SN12C
CAKI-1 = tested on: CAKI-1
SF-295 = tested on: SF-295
HL-60 = tested on: HL-60
SK-MEL-2 = tested on: SK-MEL-2
HOP-62 = tested on: HOP-62
HT-29 = tested on: HT-29
DMS-273 = tested on: DMS-273
CCRF-CEM = tested on: CCRF-CEM
SF-539 = tested on: SF-539
SNB-19 = tested on: SNB-19
RXF 393 = tested on: RXF 393
NCI-H23 = tested on: NCI-H23
HCT-15 = tested on: HCT-15
HOP-92 = tested on: HOP-92
Malme-3M = tested on: Malme-3M
SK-MEL-5 = tested on: SK-MEL-5
PC-3 = tested on: PC-3
T47D = tested on: T47D
TK-10 = tested on: TK-10
K562 = tested on: K562
KM12 = tested on: KM12
BT-549 = tested on: BT-549
786-0 = tested on: 786-0
SR = tested on: SR
HCC 2998 = tested on: HCC 2998
MDA-N = tested on: MDA-N
MCF7 = tested on: MCF7
NCI/ADR-RES = tested on: NCI/ADR-RES
COLO 205 = tested on: COLO 205
OVCAR-5 = tested on: OVCAR-5
MDA-MB-231 = tested on: MDA-MB-231
DU-145 = tested on: DU-145
Hs-578T = tested on: Hs-578T
U-251 = tested on: U-251
SW-620 = tested on: SW-620
MDA-MB-435 = tested on: MDA-MB-435
ACHN = tested on: ACHN
NCI-H522 = tested on: NCI-H522
IGROV-1 = tested on: IGROV-1
A498 = tested on: A498
RPMI-8226 = tested on: RPMI-8226
OVCAR-8 = tested on: OVCAR-8
SK-OV-3 = tested on: SK-OV-3

**Q.** With `COc1cc(C2c3cc4c(cc3[C@@H](Nc3ccc(C(=O)O)cc3)C3COC(=O)[C@H]23)OCO4)cc(OC)c1O` (stereo not given in full) as the compound, how does the GI50 (NCI-H226) read?
**A.** 4.47 µM (inactive)

**Q.** And the GI50 (SNB-75)?
**A.** 6.58 µM (inactive)

**Q.** What about the GI50 (EKVX) of the same compound?
**A.** > 17.5 µM (inactive)

**Q.** What about the GI50 (SK-MEL-28) of the same compound?
**A.** > 17.5 µM (inactive)

**Q.** And the GI50 (MOLT-4)?
**A.** 0.546 µM (active)

**Q.** What about the GI50 (UACC-62) of the same compound?
**A.** 9.82 µM (inactive)

**Q.** And the GI50 (LOX IMVI)?
**A.** 2.42 µM (inactive)

**Q.** What about the GI50 (UACC-257) of the same compound?
**A.** > 17.5 µM (inactive)

**Q.** What about the GI50 (OVCAR-3) of the same compound?
**A.** 14.7 µM (inactive)

**Q.** What about the GI50 (SNB-78) of the same compound?
**A.** 5.78 µM (inactive)

**Q.** And the GI50 (LXFL 529)?
**A.** 5.82 µM (inactive)

**Q.** And the GI50 (HCT-116)?
**A.** 14.5 µM (inactive)

**Q.** What about the GI50 (OVCAR-4) of the same compound?
**A.** 11 µM (inactive)

**Q.** What about the GI50 (NCI-H460) of the same compound?
**A.** 2.01 µM (inactive)

**Q.** What about the GI50 (A549) of the same compound?
**A.** > 17.5 µM (inactive)

**Q.** And the GI50 (UO-31)?
**A.** > 17.5 µM (inactive)

**Q.** What about the GI50 (SF-268) of the same compound?
**A.** 10.8 µM (inactive)

**Q.** What about the GI50 (M19-MEL) of the same compound?
**A.** 10 µM (inactive)

**Q.** And the GI50 (M14)?
**A.** 12.6 µM (inactive)

**Q.** What about the GI50 (SN12C) of the same compound?
**A.** > 17.5 µM (inactive)

**Q.** What about the GI50 (CAKI-1) of the same compound?
**A.** 5.93 µM (inactive)

**Q.** And the GI50 (SF-295)?
**A.** 8.85 µM (inactive)

**Q.** And the GI50 (HL-60)?
**A.** 3.24 µM (inactive)

**Q.** And the GI50 (SK-MEL-2)?
**A.** 16.6 µM (inactive)

**Q.** What about the GI50 (HOP-62) of the same compound?
**A.** 6.11 µM (inactive)

**Q.** And the GI50 (HT-29)?
**A.** 11.1 µM (inactive)

**Q.** What about the GI50 (DMS-273) of the same compound?
**A.** 5.65 µM (inactive)

**Q.** And the GI50 (CCRF-CEM)?
**A.** 2.56 µM (inactive)

**Q.** What about the GI50 (SF-539) of the same compound?
**A.** 4.7 µM (inactive)

**Q.** What about the GI50 (SNB-19) of the same compound?
**A.** 6.11 µM (inactive)

**Q.** And the GI50 (RXF 393)?
**A.** 10.5 µM (inactive)

**Q.** What about the GI50 (NCI-H23) of the same compound?
**A.** 7.74 µM (inactive)

**Q.** And the GI50 (HCT-15)?
**A.** 7.5 µM

**Q.** What about the GI50 (HOP-92) of the same compound?
**A.** 4.81 µM (inactive)

**Q.** And the GI50 (Malme-3M)?
**A.** 8.55 µM (inactive)

**Q.** And the GI50 (SK-MEL-5)?
**A.** 9.77 µM (inactive)

**Q.** Which results are given for `Cc1nc2c(O)c3c(c(O)c2nc1C)C1C=CC3CC1`?
**A.** GI50 (NCI-H226): 29.6 µM (inactive); GI50 (SNB-75): 32.2 µM (inactive); GI50 (PC-3): 9.35 µM (inactive); GI50 (T47D): 2.79 µM (inactive); GI50 (TK-10): 20.6 µM (inactive); GI50 (K562): 2.09 µM (inactive); GI50 (EKVX): 11 µM (inactive); GI50 (KM12): 15.7 µM (inactive); GI50 (SK-MEL-28): 16.4 µM (inactive); GI50 (BT-549): 15.7 µM (inactive); GI50 (786-0): 13.9 µM (inactive); GI50 (MOLT-4): 1.06 µM (active); GI50 (UACC-62): 21.2 µM (inactive); GI50 (SR): 9.59 µM (inactive); GI50 (HCC 2998): > 40.2 µM (inactive); GI50 (MDA-N): 2.97 µM (inactive); GI50 (MCF7): 9.75 µM (inactive); GI50 (LOX IMVI): 3.53 µM (inactive); GI50 (NCI/ADR-RES): 3.71 µM (inactive); GI50 (COLO 205): 19.7 µM (inactive); GI50 (UACC-257): 7.24 µM (inactive); GI50 (OVCAR-5): 18.3 µM (inactive); GI50 (OVCAR-3): 6.22 µM (inactive); GI50 (HCT-116): 6.27 µM (inactive); GI50 (OVCAR-4): 3.06 µM (inactive); GI50 (NCI-H460): 30.3 µM (inactive); GI50 (A549): 24.9 µM (inactive); GI50 (UO-31): 12 µM (inactive); GI50 (SF-268): 10.4 µM (inactive); GI50 (M14): 15.3 µM (inactive); GI50 (SN12C): 12.7 µM (inactive); GI50 (CAKI-1): 7.57 µM (inactive); GI50 (MDA-MB-231): 3.02 µM (inactive); GI50 (SF-295): 29.7 µM (inactive); GI50 (DU-145): > 75.3 µM (inactive); GI50 (Hs-578T): 32.1 µM (inactive); GI50 (HL-60): 0.973 µM (active); GI50 (SK-MEL-2): 11.8 µM (inactive); GI50 (HOP-62): 19.6 µM (inactive); GI50 (HT-29): 21.4 µM (inactive); GI50 (U-251): 9.44 µM (inactive); GI50 (CCRF-CEM): 1.25 µM (inactive); GI50 (SF-539): 14.6 µM (inactive); GI50 (SNB-19): > 64.1 µM (inactive); GI50 (RXF 393): 9.23 µM (inactive); GI50 (NCI-H23): 5.86 µM (inactive); GI50 (SW-620): 12.4 µM (inactive); GI50 (MDA-MB-435): 3.04 µM (inactive); GI50 (ACHN): 11.2 µM (inactive); GI50 (NCI-H522): 16 µM (inactive); GI50 (IGROV-1): 7.31 µM (inactive); GI50 (HCT-15): 17.1 µM; GI50 (HOP-92): 2.9 µM (inactive); GI50 (A498): 42.9 µM (inactive); GI50 (Malme-3M): 12.7 µM (inactive); GI50 (RPMI-8226): 2.92 µM (inactive); GI50 (OVCAR-8): 7.45 µM (inactive); GI50 (SK-OV-3): 22 µM (inactive); GI50 (SK-MEL-5): 14 µM (inactive)
